The target in one test is T1, GST-PDK1_1-556 (Homo sapiens, UniProt O15530).
T1 construct: made in house; host or cells: HEK293 cells (transient transfection of pEBG2T); peptide synthesized by Pepscan
T1 sequence (O15530 1-556): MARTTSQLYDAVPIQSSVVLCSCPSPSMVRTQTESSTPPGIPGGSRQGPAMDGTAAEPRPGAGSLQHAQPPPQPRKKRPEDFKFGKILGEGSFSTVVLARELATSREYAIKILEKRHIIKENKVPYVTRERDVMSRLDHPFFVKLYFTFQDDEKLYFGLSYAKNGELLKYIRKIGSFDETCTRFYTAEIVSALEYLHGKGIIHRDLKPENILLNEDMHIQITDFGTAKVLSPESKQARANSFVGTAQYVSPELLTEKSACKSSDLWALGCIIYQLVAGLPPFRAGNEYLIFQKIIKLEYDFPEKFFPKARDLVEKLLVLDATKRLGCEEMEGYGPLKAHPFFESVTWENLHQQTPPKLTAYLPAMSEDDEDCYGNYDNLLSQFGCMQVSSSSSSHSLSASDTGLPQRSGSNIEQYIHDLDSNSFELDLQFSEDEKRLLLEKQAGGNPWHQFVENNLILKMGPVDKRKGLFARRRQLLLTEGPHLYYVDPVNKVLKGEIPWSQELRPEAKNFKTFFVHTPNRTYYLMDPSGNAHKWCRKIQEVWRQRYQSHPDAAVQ
Briefly: AlphaScreen biotin-PIP3 / GST-PDK1_1-556 displacement. The conditions noted are these: PIP3 20 nM, GST-PDK1 3 nM. The test is classed as binding. The procedure: The AlphaScreen® assay was performed following the general guidelines from the manufacturer (Perkin Elmer) ([29]). In short, the assay was performed in a final volume of 25 μl in white 384-well microtiter plates (Greiner) in a standard buffer containing 50 mM Tris-HCl (pH 7.4), 100 mM NaCl, 2 mM DTT, 0.01% (v/v) Tween-20 and 0.1% (w/v) BSA, with the addition of 5 μl of beads (anti-GST coated acceptor beads and streptavidin-coated donor beads; nickel chelate-coated acceptor beads and streptavidin-coated donor beads; or nickel chelate-coated acceptor beads and GSH-coated donor beads, 20 μg/ml final concentrations for each bead type). AlphaScreen assays for His-tagged proteins and GST-fusion proteins were performed using nickel chelate-coated acceptor beads and GSH-coated donor beads; alphascreen assays for His-tagged proteins and biotinylated molecules were performed using nickel chelate-coated acceptor beads and streptavidin-coated donor beads; alphascreen assays for GST-fusion proteins and biotinylated molecules were performed using anti-GST coated acceptor beads and streptavidin-coated donor beads (Perkin Elmer).
The conditions for each AlphaScreen assay were identified in cross-titration experiments for each interaction to choose the ideal pair of concentrations within the linear range of the interactions. As required, the standard conditions were modified to use less material, to increase binding of the interacting molecules, to lower background signal, and so on. His-PDK1 and GST-fusion protein in the presence or absence of the different compounds were incubated in the dark for 60 min at room temperature and the emission of light from the acceptor beads was measured in an EnVision reader (Perkin Elmer) or Spark plate reader (Tecan). AlphaScreen assays were performed at least twice, although most experiments were performed multiple times by different researchers with different batches of purified proteins with similar results.
Biotin-PIP3 interactions with GST-PDK1_1-556 or GST-PDK1_360-556 were assessed in the standard buffer. […]
For orientation: Alpha assays give light when donor and acceptor beads are brought close together.

The target in a further test is T2, PDK1 (Homo sapiens, UniProt O15530).
T2 sequence (O15530 1-556): T1 sequence (O15530 1-556)
The test is described as follows: Thermo Fisher "PDK1 Direct" assay (peptide Ser/Thr 07, FRET readout). The test is classed as biochemical. As to conditions: for Hill slope, PDK1 direct / IC50: 10-point titration.

In test [1] the target is T3, His-PDK1_1-556 and GST-PDK1_360-556 (Homo sapiens, UniProt O15530).
T3 construct: made in house; host or cells: Sf9 insect cells (His-PDK1_1-556); HEK293 cells (GST-PDK1_360-556)
T3 sequence (O15530 1-556): T1 sequence (O15530 1-556)
The test is described as follows: AlphaScreen PDK1 dimerization assay His-PDK1_1-556 / GST-PDK1_360-556. It counts as binding.

The target of a further test is T4, PDK1_1-556 (Homo sapiens, UniProt O15530).
T4 construct: effect of HYG8 on the thermal stability (ΔTm) of PDK1_1-556 (H) and PDK1_50-359 (I); His (N); made in house; host or cells: Sf9 insect cells (baculovirus)
T4 sequence (O15530 1-556): T1 sequence (O15530 1-556)
Briefly: Differential scanning fluorimetry, thermal stability of PDK1_1-556. The test is classed as binding. The conditions noted are these: PDK1 1 μM. For orientation: Differential scanning fluorimetry follows unfolding on heating by fluorescence.

[2] abbreviates: replicate point 1, read-out: % Inhibition Point 1.
The mark [3] stands for this setting: replicate point 2, read-out: % Inhibition Point 2.
The mark [4] stands for this setting: single point, N=2, read-out: Inhibition at 1 μM (%).
The mark [5] stands for this setting: absence of PIFtide, read-out: IC50 (nM), displacement of His-PDK1_1-556 interaction with GST-PDK1_360-556.
[6] abbreviates: with PIFtide, read-out: IC50 (nM), displacement of His-PDK1_1-556 interaction with GST-PDK1_360-556 with PIFtide.

Where “and” joins values, the source holds several entries; their conditions need not be identical. Equal entries are not always repeated. Where two headings read alike, the source gives them in different places.

In general, inhibition refers to the change of the read-out against control, counted positive when it falls. A word on the IC50: it is the concentration at which inhibition is half-maximal. In the case of `O=C(O[C@H]1[C@@H](OP(=O)(O)O)[C@H](OP(=O)(O)O)[C@@H](OP(=O)(O)O)[C@H](OP(=O)(O)O)[C@H]1OP(=O)(O)O)c1ccccc1` [HYG8, 2-O-benzoyl-IP5], the “displacement of PIP3 from GST-PDK1_1-556” value on GST-PDK1_1-556 is “higher potency than IP5”. For the same molecule, the inhibition at 1 µM was found to be 97% on PDK1 (setting [2]), 98% at PDK1 (setting [3]) and 98% at PDK1 (setting [4]). The “Hill slope, PDK1 direct” value at PDK1 stood at 1.39. Moreover, the IC50 came to 24.5 nM against PDK1, 33.3 nM in test [1] (setting [5]) and 19.5 nM in test [1] (setting [6]). For the same molecule, the “Tm (°C), temperature stabilization of PDK1_1-556” value at PDK1_1-556 (compound 1 µM) was 11.7 °C and 11-15 °C; at PDK1_1-556 (compound 20 µM), 13.7 °C and 13-16 °C.

With `CCCCO[C@H]1[C@@H](OP(=O)(O)O)[C@H](OP(=O)(O)O)[C@@H](OP(=O)(O)O)[C@H](OP(=O)(O)O)[C@H]1OP(=O)(O)O` [HYG14, 2-O-butyl-IP5], the “displacement of PIP3 from GST-PDK1_1-556” value at GST-PDK1_1-556 is on record as “almost completely displaced”. Besides, the inhibition at 1 µM on PDK1 (setting [2]) was found to be 98%; on PDK1 (setting [3]), 101%; at PDK1 (setting [4]), 100%. The “Hill slope, PDK1 direct” value at PDK1 worked out at 1.61. For the same molecule, the IC50 was 16.2 nM on PDK1, 29.6 nM in test [1] (setting [5]) and 29.4 nM in test [1] (setting [6]). Besides, the “Tm (°C), temperature stabilization of PDK1_1-556” value on PDK1_1-556 (compound 1 µM) was 15.2 °C and 11-15 °C; at PDK1_1-556 (compound 20 µM), 16.5 °C and 13-16 °C.

The values above are taken from PMC7614687, “Modulation of the substrate specificity of the kinase PDK1 by distinct conformations of the full-length protein*” (Science signaling, 2023).
